The values that follow come from patent EP0529395A2, “Benzamide multidrug resistance reversing agents” (Bristol-Myers Squibb Company, priority 1991, dated 1993).

What all share (type): cell-based, human
One assay has as its system HCT-116/VM46. In words: Cytotoxic assay, MDR reversing effect with actinomycin D in resistant colon carcinoma cells. How it is done:
(§1) Cell Culture: HCT116/VM46 cells were selected from human colon carcinoma HCT116 cell line for resistance to VM26 and MCF-7/ADR cells were selected from human breast carcinoma MCF-7 cell line for resistance to Adriamycin. […] The cell lines were grown in tissue culture flasks containing McCoy's 5A medium and 10% fetal bovine serum. Cells were maintained at 37°C in a humidified atmosphere containing 5% C02 and subcultured every 5 days.
(§2) Cytotoxic Assay: The cells were seeded in 96 well microtiter plates at 5x10^3 cells per well and allowed to grow for 24 hours at 37 °C. Cells were then incubated with decreasing amounts of antitumor agents: Adriamycin (100 µM, maximal concentration) or actinomycin D (17.6 ng/ml), for MCF-7 and HCT-116 cells, respectively. Chemosensitizers were added at variable concentrations ranging from 0.08 µM to […]. In parallel, verapamil was used as positive control at the same concentrations. After 48 hours of incubation, the cells were washed, fixed and stained with crystal violet. Absorbance was read by Molecular Devices' microtiter plate reader at the wavelength of 595nm. The IC50 value (50% inhibition of cell growth) was determined from relative survival rates resulted from two to three independent experiments. The term "fold resistance" was defined as the ratio of the IC50 for antitumor drug in the presence or absence of chemosensitizer in resistant cells divided by the IC50 for antitumor drug in its sensitive counterpart. This value provides an estimate of the apparent potency of each reversing agent in enhancing drug effect.

In the next assay the test system is HCT116. In words: Cytotoxic assay, actinomycin D in sensitive colon carcinoma cells. Conditions: no chemosensitizer. The method, then:
as §1
as §2, with “The term "fold resistance" was defined as the ratio of the IC50 for antitumor drug in the presence or absence of chemosensitizer in resistant cells divided by the IC50 for antitumor drug in its sensitive counterpart. This value provides an estimate of the apparent potency of each reversing agent in enhancing drug effect.” left out

The subject of the next assay is MCF-7/ADR. Put plainly: Cytotoxic assay, MDR reversing effect with Adriamycin in resistant breast carcinoma cells. How it is done: as §1, §2
Where [1] appears, read: ActD IC50 in HCT-116/VM46 with chemosensitizer 0.4 μM divided by ActD IC50 in sensitive HCT116.
Where [2] appears, read: ADR IC50 in MCF-7/ADR with chemosensitizer 0.67 µM divided by ADR IC50 in sensitive MCF-7.

The structures appear in SMILES notation. Starred links: 1 amine or outer side, 2 acyl side, 3 side chain; linkers in the order of their positions; H or OH if unused. Positions of bridges follow the written chain, without caps; N, C: chain ends. Non-standard residues stand in square brackets, D forms with d. Residues, ends and D or L forms follow the SMILES beside them. Chains are numbered I, II in the order given. Actinocin(9to1) = Cc1c2oc3c(C)ccc(C(=O)[*:1])c3nc-2c(C(=O)[*:2])c(N)c1=O; NMeV = CN[C@H](C(=O)O)C(C)C; Sar = CNCC(=O)O

Take `Cc1c2oc3c(C)ccc(C(=O)N[C@@H]4C(=O)N[C@H](C(C)C)C(=O)N5CCC[C@H]5C(=O)N(C)CC(=O)N(C)[C@@H](C(C)C)C(=O)O[C@@H]4C)c3nc-2c(C(=O)N[C@@H]2C(=O)N[C@H](C(C)C)C(=O)N3CCC[C@H]3C(=O)N(C)CC(=O)N(C)[C@@H](C(C)C)C(=O)O[C@@H]2C)c(N)c1=O` [ActD, Actinomycin D] (I: T[dV]P[Sar][NMeV] / II: T[dV]P[Sar][NMeV]; ester I:1-I:C, II:1-II:C; linker I:N-II:N via Actinocin(9to1)): the “ActD IC50” value in the assay on HCT-116/VM46 (HCT-116/VM46 cells, no chemosensitizer) stood at 10 ng/mL; in the assay with HCT116, 0.5 ng/mL. Also, in the assay with HCT-116/VM46 (HCT-116/VM46 versus HCT116, ActD, no chemosensitizer), the “Fold Resistance” value is recorded as 20.0. Turning to `CCN(CC)CCN(C(=O)c1cc(Cl)c(N)cc1Oc1ccc(C(F)(F)F)cc1[N+](=O)[O-])c1ccc(C(F)(F)F)cc1[N+](=O)[O-]` [Ia], in the assay on HCT-116/VM46 (setting [1]), the “Fold Resistance” value is 11.0. For the compound `C/C=C/C(=O)Nc1cc(OCCSc2ccccc2)c(C(=O)NCCN(CC)CC)cc1Cl` [If, 5-Chloro-4-crotonylamino-N-[2-(diethylamino)ethyl]-2-[2-(phenylthio)ethoxy]benzamide], the “Fold Resistance” value in the assay with HCT-116/VM46 (setting [1]) amounted to 4.8; in the assay with MCF-7/ADR (setting [2]), 28.6. Regarding `CCN(CC)CCN(C(=O)c1cc(Cl)c(N)cc1Oc1ccc([N+](=O)[O-])cc1)c1ccc([N+](=O)[O-])cc1` [Ii, 4-Amino-5-chloro-N-[2-(diethylamino)ethyl]-2-(4-nitrophenoxy)-N-(4-nitrophenyl)benzamide], in the assay with HCT-116/VM46 (setting [1]), the “Fold Resistance” value is 9.8.

On to `COc1ccc(CCN(C)CCCC(C#N)(c2ccc(OC)c(OC)c2)C(C)C)cc1OC` (stereo not drawn) [Verapamil, verapamil], for which the “Fold Resistance” value with HCT-116/VM46 (setting [1]) came out at 11.6; in the assay on MCF-7/ADR (setting [2]), 63.9. As for `CCN(CC)CCNC(=O)c1cc(Cl)c(N)cc1OCCCc1ccccc1` [Ic, 4-Amino-5-chloro-N-[2-(diethylamino)ethyl]-2-[3-(phenyl)pronoxy]benzamide], in the assay with HCT-116/VM46 (setting [1]), the “Fold Resistance” value amounted to 9.8. `COc1cccc2c1C(=O)c1c(O)c3c(c(O)c1C2=O)C[C@@](O)(C(=O)CO)C[C@@H]3O[C@H]1C[C@H](N)[C@H](O)[C@H](C)O1` [ADR, Adriamycin]: in the assay with MCF-7/ADR (Homo sapiens, NCI/ADR-RES, 48 h, MCF-7/ADR cells, no chemosensitizer), the IC50 was 50 µM. For the same compound, in the assay with MCF-7/ADR (MCF-7/ADR versus MCF-7, ADR, no chemosensitizer), the “Fold Resistance” value is on record as 138.9.

The term IC50 denotes the concentration that gives 50% inhibition.
